The structures appear in SMILES notation.

For 29 compounds, IC50 results are on record in patent US20240208986A1, “PHENYL AZEPINES AS RIPK1 INHIBITORS AND METHODS OF USE THEREOF” (Merck Sharp & Dohme LLC, priority 2021, published 2024).

For this experiment, the target named is RIPK1 (recombinant GST-RIPK1 kinase domain, residues 1-327) (Homo sapiens (Human), UniProt Q13546). Description: RIPK1-ADP-Glo Enzymatic Assay. The format is biochemical. The note with it: 25 nM GST-RIPK1, 300 μM ATP, 3 μM dephosphorylated-MBP; 30 minutes pre-incubation, 150 minutes reaction; ten-point titration. Here is the method: The enzymatic activity of RIPK1 is measured using an assay derived from ADP-Glo kit (™Promega), which provides a luminescent-based ADP detection system. Specifically, the ADP generated by RIPK1 kinase is proportionally detected as luminescent signals in a homogenous fashion. In this context, the assessment of the inhibitory effect of small molecules (EC50) is measured by the effectiveness of the compounds to inhibit the ATP to ADP conversion by RIPK1.
Chain of RIPK1 (recombinant GST-RIPK1 kinase domain, residues 1-327) (Q13546 1-327): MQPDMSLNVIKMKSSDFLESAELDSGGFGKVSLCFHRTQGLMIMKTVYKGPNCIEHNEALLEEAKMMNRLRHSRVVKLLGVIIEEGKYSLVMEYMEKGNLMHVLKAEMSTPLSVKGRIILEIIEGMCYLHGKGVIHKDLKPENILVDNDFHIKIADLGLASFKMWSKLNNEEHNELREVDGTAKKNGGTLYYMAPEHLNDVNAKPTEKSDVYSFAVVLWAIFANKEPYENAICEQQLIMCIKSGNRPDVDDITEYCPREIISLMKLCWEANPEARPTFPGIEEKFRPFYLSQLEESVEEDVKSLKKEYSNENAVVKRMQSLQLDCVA
In this assay, the potency (EC50) of each compound was determined from a ten-point (1:3 serial dilution; top compound concentration of 100000 nM) titration curve using the following outlined procedure. To each well of a white ProxiPlus 384 well-plate, 30 nL of compound (1% DMSO in final assay volume of 3 μL) was dispensed, followed by the addition of 2 μL of 1× assay buffer (25 mM Hepes 7.3, 20 mM MgCl2, 50 mM NaCl, 1 mM DTT, 0.005% Tween20, and 0.02% BSA) containing 37.5 nM of GST-RIPK1 (recombinant GST-RIPK1 kinase domain (residues 1-327) enzyme produced from baculovirus-transfected Sf21 cells: MW=62 kDa). Plates were placed in an ambient temperature humidified chamber for a 30 minutes pre-incubation with compound. Subsequently, each reaction was initiated by the addition of 1 μL 1× assay buffer containing 900 μM ATP and 3 μM dephosphorylated-MBP substrate. The final reaction in each well of 3 μL consists of 25 nM of GST-RIPK1, 300 μM ATP, and 3 μM dephosphorylated-MBP. Kinase reactions were allowed to proceed for 150 minutes prior to adding ADP-Glo reagents per Promega's outlined kit protocol. Dose-response curves were generated by plotting percent effect (% product conversion; Y-axis) vs. Log10 compound concentrations (X-axis). EC50 values were calculated using a non-linear regression, four-parameters sigmoidal dose-response model.
In general terms: ADP-Glo turns the ADP formed in a reaction into a luminescent signal.
With `O=C(N1C[C@@H]2C[C@H]1c1ccccc1O2)C12CC3CC(CC(C3)C1)C2` [Compound 1-23, [(2S,5S)-2,3-dihydro-2,5-methano-1,4-benzoxazepin-4(5H)-yl][(3R,5R,7R)-tricyclo[3.3.1.1~3,7~]decan-1-yl]methanone], the IC50 came to 234 nM.

For the compound `CC(C(=O)N1C[C@@H]2C[C@H]1c1ccccc1O2)(C(F)(F)F)C(F)(F)F` [Compound 1-24, 1-[(2S,5S)-2,3-dihydro-2,5-methano-1,4-benzoxazepin-4(5H)-yl]-3,3,3-trifluoro-2-methyl-2-(trifluoromethyl)propan-1-one], the IC50 came to 69 nM.

Consider `CN(C)C1(C(=O)N2C[C@@H]3C[C@H]2c2ccccc2O3)CCC1` [Compound 1-25, [(2S,5S)-2,3-dihydro-2,5-methano-1,4-benzoxazepin-4(5H)-yl][1-(dimethylamino)cyclobutyl] methanone], for which the IC50 came out at 140 nM.

For `O=C(N1C[C@@H]2C[C@H]1c1ccccc1O2)C1(C(F)(F)F)CCCC1` [Compound 1-26, [(2S,5S)-2,3-dihydro-2,5-methano-1,4-benzoxazepin-4(5H)-yl][1-(trifluoromethyl)cyclopentyl]methanone], the 50% inhibitory concentration (IC50) came to 60 nM.

With `CC(C)(C(=O)N1C[C@@H]2C[C@H]1c1ccccc1O2)C1CC1` [Compound 1-28, 2-cyclopropyl-1-[(2S,5S)-2,3-dihydro-2,5-methano-1,4-benzoxazepin-4(5H)-yl]-2-methylpropan-1-one], the IC50 worked out at 22 nM.

For `O=C(N1C[C@@H]2C[C@H]1c1ccccc1O2)C1(C(F)F)CCC1` [Compound 1-29, [1-(difluoromethyl)cyclobutyl] [(2S,5S)-2,3-dihydro-2,5-methano-1,4-benzoxazepin-4(5H)-yl]methanone], the IC50 worked out at 58 nM.

On to `N#CC1(C(=O)N2C[C@@H]3C[C@H]2c2ccccc2O3)CCC1` [Compound 1-30, 1-[(2S,5S)-2,3-dihydro-2,5-methano-1,4-benzoxazepine-4(5H)-carbonyl]cyclobutane-1-carbonitrile], for which the IC50 came to 76 nM.

Consider `CC1(C(=O)N2C[C@@H]3C[C@H]2c2ccccc2O3)CC(F)(F)C1` [Compound 1-31, (3,3-difluoro-1-methylcyclobutyl)[(2S,5S)-2,3-dihydro-2,5-methano-1,4-benzoxazepin-4(5H)-yl]methanone], for which the concentration for half-maximal inhibition (IC50) came to 157 nM.

As for `CC(CF)(CF)C(=O)N1C[C@@H]2C[C@H]1c1ccccc1O2` [Compound 1-33, 1-[(2S,5S)-2,3-dihydro-2,5-methano-1,4-benzoxazepin-4(5H)-yl]-3-fluoro-2-(fluoromethyl)-2-methylpropan-1-one], the concentration for half-maximal inhibition (IC50) is 881 nM.

For the compound `N#Cc1cc(N2CCC(C(=O)N3C[C@@H]4C[C@H]3c3ccccc3O4)CC2)ncn1` [Compound 1-36, 6-{4-[(2S,5S)-2,3-dihydro-2,5-methano-1,4-benzoxazepine-4(5H)-carbonyl]piperidin-1-yl}pyrimidine-4-carbonitrile], the 50% inhibitory concentration (IC50) amounted to 327 nM.

In the case of `O=C(C1CCN(c2ncnc3scnc23)CC1)N1C[C@@H]2C[C@H]1c1ccccc1O2` [Compound 1-37, [(2S,5S)-2,3-dihydro-2,5-methano-1,4-benzoxazepin-4(5H)-yl][1-([1,3]thiazolo[5,4-d]pyrimidin-7-yl)piperidin-4-yl]methanone], the IC50 worked out at 124 nM.

`O=C(N1C[C@@H]2C[C@H]1c1ccccc1O2)C12CC(C1)C2` [Compound 1-38, (bicyclo[1.1.1]pentan-1-yl)[(2S,5S)-2,3-dihydro-2,5-methano-1,4-benzoxazepin-4(5H)-yl]methanone]: the IC50 came to 146 nM.

As for `O=C(C1CCN(c2nccn3ncnc23)CC1)N1C[C@@H]2C[C@H]1c1ccccc1O2` [Compound 1-39, [(2S,5S)-2,3-dihydro-2,5-methano-1,4-benzoxazepin-4(5H)-yl][1-([1,2,4]triazolo[1,5-a]pyrazin-8-yl)piperidin-4-yl]methanone], the concentration for half-maximal inhibition (IC50) amounted to 213 nM.

As to `O=C(N1C[C@@H]2C[C@H]1c1ccccc1O2)C12CCC(F)(CC1)C2` [Compound 1-40, ((2S,5S)-2,3-dihydro-2,5-methanobenzo[f][1,4]oxaze-pin-4(5H)-yl)(4-fluorobicyclo[2.2.1]heptan-1-yl)methanone], the IC50 amounted to 23 nM.

For `O=C(N1C[C@@H]2C[C@H]1c1ccccc1O2)C12CCC(C(F)F)(CC1)C2` [Compound 1-41, (4-(difluoromethyl)bicyclo [2.2.1]heptan-1-yl)((2S,5S)-2,3-dihydro-2,5-methanobenzo[f][1,4]oxaze-pin-4(5H)-yl)methanone], the half-maximal inhibitory concentration (IC50) was found to be 13 nM.

As to `CC12CC(C(=O)N3C[C@@H]4C[C@H]3c3ccccc3O4)(CO1)C2` [Compound 1-42, [(2S,5S)-2,3-dihydro-2,5-methano-1,4-benzoxazepin-4(5H)-yl](1-methyl-2-oxabicyclo[2.1.1]hexan-4-yl)methanone], the half-maximal inhibitory concentration (IC50) came out at 922 nM.

On to `O=C(N1C[C@@H]2C[C@H]1c1ccccc1O2)C12CCC(CC1)CC2` [Compound 1-43, (bicyclo[2.2.2]octan-1-yl)[(2S,5S)-2,3-dihydro-2,5-methano-1,4-benzoxazepin-4(5H)-yl]methanone], for which the IC50 worked out at 18 nM.

Turning to `O=C(N1C[C@@H]2C[C@H]1c1ccccc1O2)C12CCC(C(F)(F)F)(CC1)C2` [Compound 1-44, [(2S,5S)-2,3-dihydro-2,5-methano-1,4-benzoxazepin-4(5H)-yl][4-(trifluoromethyl)bicyclo [2.2.1]heptan-1-yl]methanone], the half-inhibitory concentration (IC50) came out at 17 nM.

For `CC1(C)C2CCC1(C(=O)N1C[C@@H]3C[C@H]1c1ccccc1O3)CC2` [Compound 1-45, [(2S,5S)-2,3-dihydro-2,5-methano-1,4-benzoxazepin-4(5H)-yl](7,7-dimethylbicyclo[2.2.1]heptan-1-yl)methanone], the IC50 stood at 168 nM.

Take `COC12CCC(C(=O)N3C[C@@H]4C[C@H]3c3ccccc3O4)(CC1)C2` [Compound 1-46, [(2S,5S)-2,3-dihydro-2,5-methano-1,4-benzoxazepin-4(5H)-yl](4-methoxybicyclo[2.2.1]heptan-1-yl)methanone]: the IC50 turned out to be 117 nM.

On to `N#CC12CCC(C(=O)N3C[C@@H]4C[C@H]3c3ccccc3O4)(CC1)CC2` [Compound 1-47, 4-[(2S,5S)-2,3-dihydro-2,5-methano-1,4-benzoxazepine-4(5H)-carbonyl]bicyclo[2.2.2] octane-1-carbonitrile], for which the 50% inhibitory concentration (IC50) came to 281 nM.

With `CC1(C(=O)N2C[C@@H]3C[C@H]2c2ccccc2O3)CCN(c2cc(C#N)ncn2)CC1` [Compound 1-48, 6-{4-[(2S,5S)-2,3-dihydro-2,5-methano-1,4-benzoxazepine-4(5H)-carbonyl]-4-methylpiperidin-1-yl}pyrimidine-4-carbonitrile], the IC50 turned out to be 375 nM.

As for `N#Cc1cc(N2CCC(F)(C(=O)N3C[C@@H]4C[C@H]3c3ccccc3O4)CC2)ncn1` [Compound 1-49, 6-{4-[(2S,5S)-2,3-dihydro-2,5-methano-1,4-benzoxazepine-4(5H)-carbonyl]-4-fluoropiperidin-1-yl}pyrimidine-4-carbonitrile], the IC50 turned out to be 117 nM.

On to `O=C(N1C[C@@H]2C[C@H]1c1ccccc1O2)C12CCC(c3ccccc3)(CC1)CC2` [Compound 1-51, [(2S,5S)-2,3-dihydro-2,5-methano-1,4-benzoxazepin-4(5H)-yl](4-phenylbicyclo[2.2.2]octan-1-yl)methanone], for which the half-inhibitory concentration (IC50) is 723 nM.

`O=C(N1C[C@@H]2C[C@H]1c1ccccc1O2)C12CC(C(F)(F)F)(C1)C2` [Compound 1-52, [(2S,5S)-2,3-dihydro-2,5-methano-1,4-benzoxazepin-4(5H)-yl][3-(trifluoromethyl)bicyclo [1.1.1]pentan-1-yl]methanone]: the IC50 worked out at 199 nM.

Turning to `O=C(N1C[C@@H]2C[C@H]1c1ccccc1O2)C12CCC(C(F)(F)F)(CC1)CC2` [Compound 1-53, [(2S,5S)-2,3-dihydro-2,5-methano-1,4-benzoxazepin-4(5H)-yl][4-(trifluoromethyl)bicyclo [2.2.2]octan-1-yl]methanone], the IC50 worked out at 510 nM.

As for `O=C(N1C[C@@H]2C[C@H]1c1ccccc1O2)C12CCC(C(F)F)(CC1)CC2` [Compound 1-54, [4-(difluoromethyl)bicyclo [2.2.2]octan-1-yl][(2S,5S)-2,3-dihydro-2,5-methano-1,4-benzoxazepin-4(5H)-yl]methanone], the IC50 was determined as 263 nM.

With `COC(=O)C12CCC(C(=O)N3C[C@@H]4C[C@H]3c3ccccc3O4)(CC1)C2` [Compound 1-55, methyl 4-[(2S,5S)-2,3-dihydro-2,5-methano-1,4-benzoxazepine-4(5H)-carbonyl]bicyclo[2.2.1] heptane-1-carboxylate], the half-maximal inhibitory concentration (IC50) was 43 nM.

Regarding `CC(C)(CC#N)C(=O)N1C[C@@H]2C[C@H]1c1ccccc1O2` [Compound 1-57, 4-[(2S,5S)-2,3-dihydro-2,5-methano-1,4-benzoxazepin-4(5H)-yl]-3,3-dimethyl-4-oxobutanenitrile], the IC50 was 56 nM.

Usually IC50 stands for the concentration that gives 50% inhibition.
